We go through three molecules from patent publication US10493126B2, “Combination therapy for ameliorating adverse side effects caused by chemotherapy” (YEASTERN BIOTECH CO., LTD, priority 2014, dated 2019).

Several values for one entry are separate records, joined by “and”; a condition that tells them apart may be missing. Equal entries are not always repeated.

The subject of series [1] is BALB/cByJNarl mice. The series can be described thus: Micro CT of tibia, trabecular bone micro-architecture, Docetaxel mice model. It is filed as in vivo. The following applies: for porosity of knee, distal femur and proximal tibia samples, in words: FIG. 3B/3C, versus the mice group injected with Docetaxel alone. The source says: (§1) Male BALB/cByJNarl mice (6-8 weeks old) were purchased from National Laboratory Animal Center (NLAC) in Taiwan and randomly divided into four groups, with five mice in Groups Docetaxel+PBS, Docetaxel+FIP-fve and Docetaxel+FIP-gts each and four in Control group. The mice were housed under pathogen-free conditions with a 12-hour light/12-hour dark schedule, and fed an autoclaved diet with ad libitum access to standard rodent chow (Laboratory Rodent Diet 5001, LabDiet, St. Louis, Mo., USA). Three days before the administration of Docetaxel (namely, Day-3), the mice in the Docetaxel+PBS Group started to be fed phosphate-buffered saline (PBS) at 100 μL/animal/day, and the daily feeding of PBS continued throughout the experiment. The mice were injected intravenously in the tail vein with Taxotere® (Aventis Pharma Ltd., Dagenham, UK) at a dose of 30 mg/kg body weight on Days 1, 8 and 15. The Docetaxel+FIP-fve and Docetaxel+FIP-gts Groups were administered Taxotere® at the same dose on the same days as described above. Additionally, the two treatment groups daily received 100 μL PBS added with either 200 μg FIP-fve or 400 μg FIP-gts throughout the experiment starting from Day-3 until the end of the experiment (Day 18). The FIP-gts protein used in this and other Examples disclosed herein was produced according to the method disclosed in WO2005040375A1. The FIP-fve protein used herein was purified from F. velutipes by the method disclosed in Ko J. L., Eur. J. Biochem. 1995; 228:244-249. The mice of the Control Group were given with PBS alone at 100 μL/animal/day without being injected with anti-cancer agent. Blood was sampled from the orbital sinus of the mice on days 4, 11 and 18 for subsequent analysis. The animals were sacrificed by CO2 asphyxiation on day 18. The protocol of the experiment is illustrated in FIG. 1.
Tibiae were separated from right hind limbs of the mice and defleshed. Afterwards, individual tibiae were placed into 15 mL Falcons conical centrifuge tubes (Becton, Dickinson and Company, Franklin Lakes, N.J., USA) and covered with 70% ethanol. The tibia samples were sent to the Taiwan Mouse Clinic, funded by the National Research Program for Biopharmaceuticals (NRPB) of the National Science Council (NSC) in Taiwan, where the samples were scanned by applying three-dimensional micro-computed tomography (micro CT) in a high-resolution low-dose X-ray scanner (SkyScan 1076, Aartselaar, Belgium) and assessed for trabecular bone micro-architecture. For histological analysis, some tibia samples were demineralized in 10% EDTA for two weeks, dehydrated in graded ethanol solutions and embedded in paraffin wax using a Leica ASP300S tissue processor (Leica Microsystems Nussloch GmbH). Deparaffinized sections were stained with hematoxylin and eosin (H&E staining) and then observed under microscope.

The subject of series [2] is BALB/cByJNarl mice. The series can be described thus: Structural integrity of jejunal villus, H&E histology, Docetaxel mice model. It is filed as in vivo. The following applies: mice jejunum, FIG. 2A/2B. From the text:
(§2) Male BALB/cByJNarl mice (6-8 weeks old) were purchased from National Laboratory Animal Center (NLAC) in Taiwan and randomly divided into four groups, with five mice in Groups Docetaxel+PBS, Docetaxel+FIP-fve and Docetaxel+FIP-gts each and four in Control group. The mice were housed under pathogen-free conditions with a 12-hour light/12-hour dark schedule, and fed an autoclaved diet with ad libitum access to standard rodent chow (Laboratory Rodent Diet 5001, LabDiet, St. Louis, Mo., USA). Three days before the administration of Docetaxel (namely, Day-3), the mice in the Docetaxel+PBS Group started to be fed phosphate-buffered saline (PBS) at 100 μL/animal/day, and the daily feeding of PBS continued throughout the experiment. The mice were injected intravenously in the tail vein with Taxotere® (Aventis Pharma Ltd., Dagenham, UK) at a dose of 30 mg/kg body weight on Days 1, 8 and 15. The Docetaxel+FIP-fve and Docetaxel+FIP-gts Groups were administered Taxotere® at the same dose on the same days as described above. […]
Intestinal samples from the jejunum of the sacrificed mice were fixed in 10% formalin and embedded in paraffin wax. […] The histological images of villi appeared in the intestinal samples are shown in FIG. 2A, and the lengths of villi measured by an NIS-Elements D 3.2 image analysis system (Nikon, Japan) were shown in FIG. 2B.

Series [3] relates to BALB/cByJNarl mice. The experiment in a line: Bone marrow adipogenesis in tibia, H&E histology, Docetaxel mice model. It is filed as in vivo. The following applies: FIG. 4A/4B, compared to the Control.
Source text: as §2, with “15.” for “15. The Docetaxel+FIP-fve and Docetaxel+FIP-gts Groups were administered Taxotere® at the same dose on the same days as described above.”
Tibiae were separated from right hind limbs of the mice and defleshed. […] The tibia samples were sent to the Taiwan Mouse Clinic, funded by the National Research Program for Biopharmaceuticals (NRPB) of the National Science Council (NSC) in Taiwan, where the samples were scanned by applying three-dimensional micro-computed tomography (micro CT) in a high-resolution low-dose X-ray scanner (SkyScan 1076, Aartselaar, Belgium) and assessed for trabecular bone micro-architecture. […]

Series [4] relates to BALB/cByJNarl mice. The series can be described thus: Complete blood count in Docetaxel mice model. It is filed as in vivo.
Source text: as §1

The test system of series [5] is human patients with stage III or IV lung cancer. The experiment in a line: Clinical study: FIP-gts tablets with Taxotere and cisplatin/carboplatin. It is filed as in vivo. On the set-up: key to ECOG: 0: Asymptomatic (Fully active, able to carry on all pre-disease activities without restriction); 1: Symptomatic but completely ambulatory (Restricted in physically strenuous activity but ambulatory and able to carry out work of a light or sedentary nature. For example, light housework, office work); 2: Symptomatic, <50% in bed during the day (Ambulatory and capable of all self care but unable to carry out any work activities. Up and about more than 50% of waking hours); 3: Symptomatic, >50% in bed, but not bedbound (Capable of only limited self-care, confined to bed or chair 50% or more of waking hours); 4: Bedbound (Completely disabled. Cannot carry on any self-care. Totally confined to bed or chair); 5: Death. The following applies: columns = course days; for Hb: in g/dL (unit assumed); for Cr.: in mg/dL (unit assumed). The method, then:
The inventors further conducted a clinical study on diminished quality of life (QOL) and cancer-related fatigue (CRF) caused by chemotherapy. The QOL and CRF of selected human patients were evaluated by the Eastern Cooperative Oncology Group (ECOG) Performance Status Scale from 0 to 5 (Oken M. M., et al., Am. J. Clin. Oncol.; 1982, 5(6): 649-55), where each grade represents:
Five human patients with stage III or IV lung cancer were enrolled in this study. During the study, each patient was administered Taxotere® at either a low dose of 20-30 mg/m^2 or a high dose of 60-69 mg/m^2 in conjunction with cisplatin/carboplatin on the designated days as prescribed by the physician, and received daily two tablets of FIP-gts (3 mg/tablet). The patients were asked to come back to the hospital on the designated days for follow up at the clinic and collection of blood samples. The patients were assessed for quality of life and fatigue according to the ECOG performance status system described above. The medical records of the five patients, as well as the administration regimens for the patients, were illustrated in Tables III.A-III.E below.

The next series deals with human lymphocytes. The following applies: 3H-thymidine, compared to PHA; cited from earlier work.
Setting [6] is: mice tibia, micro CT, Day 18, Docetaxel 30 mg/kg i.v., FIP-fve 200 μg or FIP-gts 400 μg daily.
Setting [7] is: Docetaxel 30 mg/kg i.v. Days 1, 8, 15, daily FIP-fve 200 μg or FIP-gts 400 μg in 100 μL PBS from Day -3, Day 18.
Where [8] appears, read: Patient Case 3, Taxotere + cisplatin + daily FIP-gts, chemotherapy course 1, April.
[9] abbreviates: Patient Case 3, Taxotere + cisplatin + daily FIP-gts, chemotherapy course 2, May 10.
Setting [10] is: Patient Case 3, Taxotere + cisplatin + daily FIP-gts, chemotherapy course 3, May.
Setting [11] is: Patient Case 4, low dose Taxotere + cisplatin/carboplatin + daily FIP-gts.
Setting [12] is: Patient Case 4, low dose Taxotere + cisplatin/carboplatin + daily FIP-gts, in U/L (unit assumed).

As to `CC(=O)O[C@@]12CO[C@@H]1C[C@H](O)[C@@]1(C)C(=O)[C@H](O)C3=C(C)[C@@H](OC(=O)[C@H](O)[C@@H](NC(=O)OC(C)(C)C)c4ccccc4)C[C@@](O)([C@@H](OC(=O)c4ccccc4)[C@H]21)C3(C)C` [Docetaxel, (2R,3S)-N-carboxy-3-phenylisoserine, N-tert-butyl ester, 13-ester with 5, 20-epoxy-1,2,4,7, 10, 13-hexahydroxytax-11-en-9-one 4-acetate 2-benzoate, trihydrate], in the series on BALB/cByJNarl mice [1] (setting [6]), the “Bone surface density BS/TV” value is listed as 3.852 1/U, the “Percent bone volume BV/TV” value was 5.634%, the “Structure model index SMI” value was determined as 2.1757 and the “Trabecular number Tb.N” value is on record as 0.8566 1/U. In the series with BALB/cByJNarl mice [1] (setting [6]), the “Trabecular separation Tb.Sp” value came to 0.5623 U and the “Trabecular thickness Tb.Th” value is listed as 0.06577 U. In addition, the “structural integrity of the tibia, in words” value in the series on BALB/cByJNarl mice [1] (micro CT, FIG. 3A, compared to the Control Group) is recorded as “much more osteo-porous than the Control”. For the same molecule, the “Docetaxel-induced osteoporosis, in words” value in the series on BALB/cByJNarl mice [1] (tibia samples, from trabecular number, percent bone volume, trabecular separation) is recorded as “induction of osteoporosis”. The “structural integrity of villi, in words” value with BALB/cByJNarl mice [2] was “severely damaged and blunted”. In the series with BALB/cByJNarl mice [3], the “adipogenesis in tibia bone marrow, in words” value is listed as “increase in marrow adipose tissue”. Further, in the series on BALB/cByJNarl mice [4] (setting [7]), the HCT is listed as 39.94 ± 1.19%, the HGB came out at 11.77 ± 0.31 g/dL, the MCH came out at 15.00 ± 0.16 pg and the MCHC was 29.48 ± 0.05 g/dL. Moreover, in the series with BALB/cByJNarl mice [4] (setting [7]), the MCV is 50.82 ± 0.49 fL, the MPV is on record as 6.71 ± 0.17 fL, the PLT is 317.88 ± 60.27 10^3/μL and the RBC was 7.86 ± 0.24 ×10^6/μL. Also, in the series with BALB/cByJNarl mice [4] (setting [7]), the RDW worked out at 29.26 ± 0.73 fL and the WBC is 3.29 ± 0.80 ×10^3/μL. The “levels of white blood cells (WBC), red blood cells (RBC), hemoglobin (HGB), hematocrit (HCT) and platelets (PLT), in words” value in the series with BALB/cByJNarl mice [4] (Docetaxel alone compared with the Control group) is listed as “considerable reduction”.
“FIP-gts: fungal immunomodulatory protein of Ganoderma tsugae, SEQ ID NO: 1, produced according to WO2005040375A1; 3 mg tablets in the clinical study”: in the series on BALB/cByJNarl mice [1] (micro CT), the “porosity of knee, distal femur and proximal tibia samples, in words” value is listed as “considerably less porous”. In addition, the ECOG worked out at 1 in series [5] (Patient Case 1, Taxotere + cisplatin/carboplatin + daily FIP-gts); 1 in series [5] (Patient Case 2, Taxotere + cisplatin/carboplatin + daily FIP-gts); 0 in series [5] (Patient Case 3, Taxotere + cisplatin + daily FIP-gts); 1 in series [5] (setting [11]); 0 in series [5] (Patient Case 5, low dose Taxotere + cisplatin + daily FIP-gts). Besides, the AST is 14 in series [5] (Patient Case 3, Taxotere + cisplatin + daily FIP-gts, in U/L (unit assumed), chemotherapy course 1, April); 13 in series [5] (Patient Case 3, Taxotere + cisplatin + daily FIP-gts, in U/L (unit assumed), chemotherapy course 2, May 10); 15 in series [5] (Patient Case 3, Taxotere + cisplatin + daily FIP-gts, in U/L (unit assumed), chemotherapy course 3, May); 18 and 13 and 15 in series [5] (setting [12]). The Hb is 14.9 in series [5] (setting [8]); 13.9 in series [5] (setting [9]); 12 in series [5] (setting [10]); 11.2 and 10 and 8.6 and 9.5 and 9.6 and 8.9 in series [5] (setting [11]). The Cr. in series [5] (setting [8]) is 1.09; in series [5] (setting [9]), 0.94; in series [5] (setting [10]) it was 0.86; in series [5] (setting [11]), 0.8 and 0.89 and 1.15. For the same molecule, the ALT in series [5] (setting [12]) is 10 and 9. Moreover, the “concentration sufficient to reach the maximum proliferation of human lymphocytes” value with human lymphocytes is 5 µg/mL. Besides, the “WBC level, in words” value with BALB/cByJNarl mice [4] (co-treatment with Docetaxel) was “remarkably restored the WBC level to its control value”.

B1: FIP-fve: fungal immunomodulatory protein purified from F. velutipes, SEQ ID NO: 2 (protein)
chain: SATSLTFQLAYLVKKIDFDYTPNWGRGTPSSYIDNLTFPKVLTDKKYSYRVVVNGSDLGVESNFAVTPSGGQTINFLQYNKGYGVADTKTIQVFVVIPDTGNSEEYIIAEWKKT
modifications: Flammulina Velutipes
With B1, the “porosity of knee, distal femur and proximal tibia samples, in words” value with BALB/cByJNarl mice [1] (micro CT) was “considerably less porous”. Further, the “concentration sufficient to reach the maximum proliferation of human lymphocytes” value with human lymphocytes is 100 µg/mL. The “HGB and PLT levels, in words” value in the series with BALB/cByJNarl mice [4] (reduction caused by Docetaxel) was “lessened the reduction”.
